Measured values reported in patent publication US9782368B2, “Use of N,N-bis-2-mercaptoethyl isophthalamide” (EMERAMED LIMITED, priority 2014, dated 2017).

Assays:
[1] = Ascorbate depletion assay, 9,10-PQ-sponsored oxidation, recycling of DHA; conditions: 9,10-PQ model, 200 μM added at 60 minutes
Experimental: (§1) The kinetics of ascorbate oxidation, sponsored by both 1 μM 9,10-PQ and 2 μM copper sulphate (CuSO4), was examined using the ascorbate depletion assay (Kelly et al, Res. Rep. Health Eff. Inst., 163, 3 (2011). 9,10-PQ was employed so that the action of NBMI could be examined in isolation of its chelation properties.
(§2) All experiments were performed in triplicate in UV 96 well flat-bottomed plates (Greiner bio-one) at a final volume of 200 μL. Exposures were initiated by the addition of 20 μL of a concentrated stock of ascorbate (2 mM) into each well containing 160 μL of Chelex-100 resin treated water (containing 10% DMSO), plus either 10 μL of water, CuSO4 stock solution at 4 mM or 9,10-PQ stock solution at 2 mM, and 10 μL of NMBI (4 mM and […]).
(§3) All solutions were prepared in Chelex-100 resin treated water (containing 10% DMSO). This yielded final concentrations in the wells of […], 2 μM CuSO4, or 1 μM 9,10-PQ and between 10 and 200 μM of NBMI.
(§4) Immediately prior to the addition of the ascorbate to each assay well, the plate was pre-incubated for 10 minutes at 37° C. in a plate reader (Spectra Max 190). During the exposure, the plate was maintained at this temperature. After addition of ascorbate, the concentration remaining in each well was monitored every 2 minutes for a period of two hours by measuring the absorbance at 265 nm. The ascorbate concentration was determined with reference to a standard curve, with the rate of ascorbate oxidation determined by performing a linear regression through the initial part of a concentration verses time plot using Microcal Software Limited's OriginLab (version 5.0). This was performed for each of the triplicates and the rate of ascorbate depletion was finally expressed as mean mol s 1×10^−9 depletion of ascorbate±standard deviation.
(§5) For the experiments in which the impact of adding NBMI to the ascorbate was measured, CuSO4 and 9,10-PQ depletion assays were examined later in the time course. The plates were ran with 190 μL only for the first 55-60 minutes, after which they were removed from the plate reader and 10 μL of either the NMBI or the known reducing agent, DTT stock solution, or water was added to each well. The plate was then returned to the plate reader and the absorbance at 265 nm monitored for a further 60 minutes.
(§6) The immediate increase in the measured ascorbate concentrations was determined and is referred to as the ‘jump’, as a measure of immediate recycling capacity. The sustained ‘increase’ over the remaining 60 minutes of the incubation was also determined.

[2] = Ascorbate depletion assay, CuSO4-sponsored oxidation, recycling of DHA; conditions: CuSO4 model, 200 μM added at 60 minutes
Experimental: as §1, §2, §3, §4, §5, §6

[3] = tested on: IL-6 and IL-8 secretion in A549 cells; assay: Particle-induced secretion of pro-inflammatory cytokines (ELISA) in A549 cells; type: cell-based; conditions: pre-incubation 5 mM NAC (positive control); cell line not specified (A549 and BEAS-2B tested)
Experimental: Secretion of the pro-inflammatory cytokines interleukin (IL)-6, IL-8 (as well as GM-CSF and MCP-1) into cell media in response to particle exposure was measured in A549 and BEAS-2B cells using the following method.
Lung epithelial cells were seeded at 5×10^4 in 24-well plates. After pre-incubation with NBMI, the anti-oxidant compound, N-acetyl-L-cysteine (NAC), which was used as a positive control, or vehicle, for 3 hours the medium was removed.
Fresh media containing various particles (as below) in different concentrations was in a total volume of 0.5 ml for an additional 24 hours. The supernatants were then separated from the cells by centrifugation.
IL-8, IL-6, GM-CSF and MCP-1 were measured in the cell free fluid using the DuoSet ELISA Development kit (R&D Systems, Abingdon, UK) according to manufacturer's protocol.
Exposure to medium only served as negative control. Each experiment was performed twice with 4 replicates.
The effect of pre-incubation with 50 μM NBMI on particle-induced cytokine formation was tested at various concentrations of relevant particles.

SMILES	immediate rebound increase in ascorbate [1] [µM]	whether recovery of ascorbate was sustained [1]	immediate 'jump' in ascorbate concentration [2] [µM]	sustained 'increase' in ascorbate over remaining 60 minutes [2] [µM]	reduction of secretion of inflammatory cytokines [3]
O[C@H](CS)[C@H](O)CS (racemic) [DTT, dithiothreitol, reference compound]	5.1	not sustained	7.93 ± 6.58	10.79 ± 2.45	
CC(=O)N[C@@H](CS)C(=O)O [NAC, N-acetyl-L-cysteine, reference compound]					effective in reducing the secretion of inflammatory cytokines
